system: L-Wnt cells (murine Wnt-3a) / Leading Light Wnt Reporter Cells (luciferase under control of Wnt pathway response elements); experiment: Dual-Cell β-Catenin Reporter Assay; assay type: cell-based, Mouse; details: category of IC50; luciferase signal reduced to 50% of DMSO control
Procedure: Dual-Cell β-Catenin Reporter Assay
Mouse L cells transfected to constitutively produce biologically active murine Wnt-3a, referred to as L-Wnt cells, were purchased from the American Type Culture Collection, ATCC, Manassas, VA (ATCC). These cells were cultured in DMEM supplemented with 10% FCS (Gibco/Invitrogen, Carlsbad, CA), 1% geneticin and 1% sodium pyruvate (Sigma) at 37° C. with 5% CO2. The cells were seeded into 96 well plates and treated with serial dilutions of compound diluted to 0.1% DMSO concentration. After 24 hours, cell supernatants were transferred to a 96 well plate previously seeded with Leading Light® Wnt Reporter Cells, stably transfected with a luciferase gene under control of Wnt pathway response elements. After a further 24 hours, cells are treated with One-glo luciferase assay system (Promega, Madison, WI) and the luminescent signal read by envision. The IC50 of the compound is determined as the concentration that reduces the induced luciferase signal to 50% of the DMSO control.
The category “+” refers to compounds with an IC50 of >100 μM. The category “++” refers to compounds with an IC50 of 5 to 100 μM. The category “+++” refers to compounds with an IC50<5 μM.

Row | IC50 [nM] | Compound
1 | < 5 | Cc1nn(CC(=O)Nc2ccc(-c3cnccn3)cn2)c(C)c1-c1cc(N(C)C)nc(C(F)(F)F)n1 [compound 78]
2 | 5 to 100 | Cc1nn(CC(=O)Nc2ccc(-c3cnccn3)cn2)c(C)c1-c1cnn(C(C)C)c1 [compound 62]
3 | < 5 | Cc1c(-c2ccnc(C(F)(F)F)c2)ncn1CC(=O)Nc1ccc(-c2cncnc2)cn1 [compound 104]
4 | 5 to 100 | Cn1nccc1-c1csc(CC(=O)Nc2ccc(-c3cnccn3)cn2)c1 [compound 31]
5 | 5 to 100 | Cc1c(-c2ccnc(C(F)(F)F)c2)ncn1CC(=O)Nc1ccc(-c2ccnc(C#N)c2)cn1 [compound 109]
6 | < 5 | Cc1c(-c2ccnc(F)c2)ncn1CC(=O)Nc1ccc(-c2cnccn2)cn1 [compound 110]
7 | < 5 | O=C(Cn1cc(C2=CCOCC2)c(C(F)(F)F)n1)Nc1ccc(-c2cnccn2)cn1 [compound 88]
8 | < 5 | Cc1cn(CC(=O)Nc2ccc(-c3cnccn3)cn2)nc1-c1ccnc(C(F)(F)F)c1 [compound 67]
9 | < 5 | O=C(Cn1cc(-c2ccnc(C(F)(F)F)n2)cn1)Nc1ccc(-c2cnccn2)cn1 [compound 37]
10 | 5 to 100 | O=C(Cn1cnc(-c2ccnc(C(F)(F)F)c2)c1)Nc1ccc(-c2cnccn2)nc1 [compound 13]
11 | 5 to 100 | Cc1noc(C)c1-c1cnn(CC(=O)Nc2ccc(-c3cnccn3)cn2)c1 [compound 36]
12 | < 5 | Cc1nc(-c2ccnc(C(F)(F)F)c2)c(C)n1CC(=O)Nc1ccc(-c2cnccn2)cn1 [compound 72]
13 | 5 to 100 | Cc1nn(CC(=O)Nc2ccc(-c3cnccn3)cn2)c(C)c1-c1cc(Cl)ncn1 [compound 57]
14 | < 5 | Cc1cc(-c2cn(CC(=O)Nc3ccc(-c4cnccn4)cn3)nc2C)ccn1 [compound 90]
15 | < 5 | Cc1c(-c2ccnc(C(F)(F)F)c2)ncn1CC(=O)Nc1ccc(-c2ncccn2)cn1 [compound 105]
16 | > 100 | CC(C)n1nccc1-c1cnn(CC(=O)Nc2ccc(-c3cnccn3)cn2)c1 [compound 43]
17 | > 100 | O=C(Cn1cc(-c2ccnn2C2CCCC2)cn1)Nc1ccc(-c2cnccn2)cn1 [compound 45]
18 | 5 to 100 | Cc1nn(CC(=O)Nc2ccc(-c3cnccn3)cn2)c(C)c1-c1ccc(N(C)C)nc1 [compound 101]
19 | 5 to 100 | Cc1nn(CC(=O)Nc2ccc(-c3cncnc3)cn2)c(C)c1C1CC(C)OC(C)C1 (centres unmarked) [compound 96]
20 | 5 to 100 | Cc1nn(CC(=O)Nc2ccc(-c3cnccn3)cn2)c(C)c1-c1cn(C)nc1C(F)(F)F [compound 70]
21 | 5 to 100 | Cn1nccc1-c1cnn(CC(=O)Nc2ccc(-c3cnccn3)cn2)c1 [compound 26]
22 | 5 to 100 | COc1ccc(-c2ccc(NC(=O)Cn3cc(-c4ccnc(C(F)(F)F)c4)c(C)n3)nc2)cn1 [compound 98]
23 | 5 to 100 | Cc1nn(CC(=O)Nc2ccc(-c3ccncc3)cn2)c(C)c1-c1ccnc(C(F)(F)F)c1 [compound 60]

Row | IC50 [nM] | Compound
24 | < 5 | Cc1nn(CC(=O)Nc2ccc(-c3ccccc3C#N)cn2)c(C)c1-c1ccnc(C(F)(F)F)c1 [compound 59]
25 | < 5 | Cc1cc(-c2nc(C)n(CC(=O)Nc3ccc(-c4cnccn4)cn3)c2C)ccn1 [compound 86]
26 | 5 to 100 | Cc1nn(CC(=O)Nc2ccc(-c3ncccn3)cn2)c(C)c1C1=CC(C)OC(C)C1 (centres unmarked) [compound 85]
27 | > 100 | Cc1ncc(-c2cnn(CC(=O)Nc3ccc(-c4cnccn4)cn3)c2)s1 [compound 29]
28 | < 5 | O=C(Cn1cc(-c2ccnc(C(F)(F)F)c2)cn1)Nc1ccc(-c2cncnc2)cn1 [compound 34]
29 | < 5 | Cc1nn(CC(=O)Nc2ccc(-c3ncccn3)cn2)c(C)c1-c1ccnc(C(F)(F)F)c1 [compound 65]
30 | < 5 | Cc1nn(CC(=O)Nc2ccc(-c3cncnc3)cn2)c(C)c1-c1ccnc(C(F)(F)F)c1 [compound 35]
31 | < 5 | Cc1cc(-c2csc(CC(=O)Nc3ccc(-c4cnccn4)cn3)c2)ccn1 [compound 24]
32 | < 5 | Cc1cc(-c2c(C)nn(CC(=O)Nc3ccc(-c4cnccn4)cn3)c2C)ccn1 [compound 44]
33 | 5 to 100 | Cc1nn(C(=O)C(C)(C)Nc2ccc(-c3cnccn3)cn2)c(C)c1C1=CCCOC1 [compound 83]
34 | < 5 | O=C(Cc1cc(-c2ccnc(C(F)(F)F)c2)cs1)Nc1ccc(-c2cnccn2)cn1 [compound 23]
35 | 5 to 100 | Cc1nn(CC(=O)Nc2ccc(-c3cncnc3)cn2)c(C)c1-c1ccc(N(C)C)nc1 [compound 102]
36 | > 100 | O=C(Cn1cc(-c2cn[nH]c2)cn1)Nc1ccc(-c2cnccn2)cn1 [compound 33]
37 | > 100 | Cc1nn(CC(=O)Nc2ccc(-c3cnccn3)cn2)c(C)c1-c1ccnn1C1CCCC1 [compound 47]
38 | > 100 | Cc1cc(-c2cnn(CC(=O)Nc3ccc(-c4cnccn4)cn3)c2)ncn1 [compound 39]
39 | < 5 | Cc1nn(CC(=O)Nc2ccc(-c3cnccn3)cn2)c(C)c1C1=CCOCC1 [compound 48]
40 | 5 to 100 | Cc1nn(CC(=O)Nc2ccc(-c3cnccn3)cn2)cc1C1=CCOCC1 [compound 89]
41 | < 5 | Cc1cc(-c2cn(CC(=O)Nc3ccc(-c4cncnc4)cn3)nc2C)ccn1 [compound 91]
42 | < 5 | Cc1nn(CC(=O)Nc2ccc(-c3cncnc3)cn2)c(C)c1C1=CC(C)OC(C)C1 (centres unmarked) [compound 84]
43 | 5 to 100 | Cc1nn(CC(=O)Nc2ccc(C3=CCOCC3)cn2)c(C)c1-c1ccnc(C(F)(F)F)c1 [compound 49]
44 | 5 to 100 | COc1cc(-c2cnccn2)cnc1NC(=O)Cn1nc(C)c(-c2ccnc(C(F)(F)F)c2)c1C [compound 77]
45 | > 100 | Cc1cc(-c2cnccn2)cnc1NC(=O)Cn1nc(C)c(-c2ccnc(C(F)(F)F)c2)c1C [compound 76]
46 | < 5 | Cc1nn(CC(=O)Nc2ccc(-c3cnccn3)cn2)c(C)c1C1CCOCC1 [compound 40]

Row | IC50 [nM] | Compound
47 | < 5 | Cc1c(-c2ccnc(C(F)(F)F)c2)ncn1CC(=O)Nc1ccc(-c2cccnc2)cn1 [compound 108]
48 | 5 to 100 | Cc1nn(CC(=O)Nc2ccc(C3=CCS(=O)(=O)CC3)cn2)c(C)c1-c1ccnc(C(F)(F)F)c1 [compound 63]
49 | < 5 | Cc1nn(CC(=O)Nc2ccc(-c3cccnc3)cn2)c(C)c1-c1ccnc(C(F)(F)F)c1 [compound 52]
50 | < 5 | Cc1nn(CC(=O)Nc2ccc(-c3cnccn3)cn2)c(C)c1-c1ccnc(F)c1 [compound 61]
51 | 5 to 100 | COc1ccc(-c2c(C)nn(CC(=O)Nc3ccc(-c4cnccn4)cn3)c2C)cn1 [compound 64]
52 | > 100 | Cn1nccc1-c1cn(CC(=O)Nc2ccc(-c3cnccn3)cn2)cn1 [compound 32]
53 | < 5 | O=C(Cn1cc(-c2ccnc(C(F)(F)F)c2)c(C(F)(F)F)n1)Nc1ccc(-c2cnccn2)cn1 [compound 95]
54 | < 5 | Cc1nn(CC(=O)Nc2ccc(-c3ccc(N(C)C)nc3)cn2)cc1-c1ccnc(C(F)(F)F)c1 [compound 99]
55 | < 5 | Cc1nn(C(C)C(=O)Nc2ccc(-c3cnccn3)cn2)c(C)c1C1=CCOCC1 (centres unmarked) [compound 81]
56 | 5 to 100 | Cc1nn(CC(=O)Nc2ncc(-c3cnccn3)cc2C#N)c(C)c1-c1ccnc(C(F)(F)F)c1 [compound 80]
57 | 5 to 100 | Cc1nn(CC(=O)Nc2ccc(C3CCOCC3)cn2)c(C)c1-c1ccnc(C(F)(F)F)c1 [compound 69]
58 | < 5 | Cc1cc(-c2ncn(CC(=O)Nc3ccc(-c4cnccn4)cn3)c2C)ccn1 [compound 87]
59 | 5 to 100 | Cc1cc(-c2cnn(CC(=O)Nc3ccc(N4CCN(C(=O)OC(C)(C)C)CC4)cn3)c2)ccn1 [compound 8]
60 | < 5 | CC(=O)Nc1ccc(-c2ccc(NC(=O)Cn3cc(-c4ccnc(C(F)(F)F)c4)c(C)n3)nc2)cn1 [compound 103]
61 | 5 to 100 | O=C(Cc1cc(C2=CCOCC2)cs1)Nc1ccc(-c2cnccn2)cn1 [compound 28]
62 | > 100 | O=C(Cn1cc(-c2ccncn2)cn1)Nc1ccc(-c2cnccn2)cn1 [compound 30]
63 | 5 to 100 | Cc1nn(CC(=O)Nc2ccc(-c3cnccn3)cn2)c(C)c1C1CC(C)OC(C)C1 (centres unmarked) [compound 92]
64 | 5 to 100 | Cc1nn(CC(=O)Nc2ccc(-c3ccnc(N(C)C)c3)cn2)cc1-c1ccnc(C(F)(F)F)c1 [compound 94]
65 | 5 to 100 | Cc1nn(CC(=O)Nc2ncc(-c3cnccn3)cc2F)c(C)c1-c1ccnc(C(F)(F)F)c1 [compound 73]
66 | 5 to 100 | Cc1nn(CC(=O)Nc2ccc(-c3cnccn3)cn2)c(C)c1C1=CCN(C(=O)OC(C)(C)C)CC1 [compound 46]
67 | > 100 | O=C(Cn1cnc(-c2ccnc(C(F)(F)F)c2)c1)Nc1ccc(-c2cncnc2)nc1 [compound 11]
68 | 5 to 100 | Cc1nn(CC(=O)Nc2ccc(-c3ncccn3)cn2)c(C)c1C1CC(C)OC(C)C1 (centres unmarked) [compound 97]
69 | 5 to 100 | Cc1nccc(-c2cnn(CC(=O)Nc3ccc(-c4cnccn4)cn3)c2)n1 [compound 38]

Row | Compound | IC50 [nM]
70 | O=C(Cn1cnc(C2=CCNCC2)c1)Nc1ccc(-c2cnccn2)cn1 [compound 42] | > 100
71 | Cc1nn(CC(=O)Nc2ccc(-c3cnccn3)cn2)c(C)c1C1=CCNCC1 [compound 53] | > 100
72 | tert-butyl 4-[1-[2-oxo-2-[(5-pyrazin-2-yl-2-pyridyl)amino]ethyl]pyrazol-4-yl]-3,6-dihydro-2H-pyridine-1-carboxylate [Example 16] | 5 to 100

same assay, conditions: luciferase signal reduced to 50% of DMSO control

Row | IC50 [nM] | Compound
73 | 0.34 | Cc1nn(CC(=O)Nc2ccc(-c3cncnc3)cn2)c(C)c1-c1ccnc(C(F)(F)F)c1 [compound 35]
74 | 0.34 | O=C(Cc1cc(-c2ccnc(C(F)(F)F)c2)cs1)Nc1ccc(-c2cnccn2)cn1 [compound 23]

Reference: patent US12202826B2, “N-pyridinyl acetamide derivatives as inhibitors of the Wnt signaling pathway” (Redx Pharma PLC, priority 2014, dated 2025)
